Legend:
Test in all cases: solid-phase competition binding assay with biotinylated EGF on coated receptor ECD/Fc
ErbB3 = molecular target: T1, ErbB3 (Homo sapiens, UniProt P21860)
T1 construct: ErbB3 ECD/Fc chimera; with EGF (biotinylated)

EGFR = molecular target: T2, EGFR (Homo sapiens, UniProt P00533)
T2 construct: human-EGFR ECD/Fc chimera; with EGF (biotinylated)

ErbB2 = molecular target: T3, ErbB2 (Homo sapiens, UniProt P04626)
T3 construct: ErbB2 ECD/Fc chimera; with EGF (biotinylated)
T3 sequence (P04626 23-652): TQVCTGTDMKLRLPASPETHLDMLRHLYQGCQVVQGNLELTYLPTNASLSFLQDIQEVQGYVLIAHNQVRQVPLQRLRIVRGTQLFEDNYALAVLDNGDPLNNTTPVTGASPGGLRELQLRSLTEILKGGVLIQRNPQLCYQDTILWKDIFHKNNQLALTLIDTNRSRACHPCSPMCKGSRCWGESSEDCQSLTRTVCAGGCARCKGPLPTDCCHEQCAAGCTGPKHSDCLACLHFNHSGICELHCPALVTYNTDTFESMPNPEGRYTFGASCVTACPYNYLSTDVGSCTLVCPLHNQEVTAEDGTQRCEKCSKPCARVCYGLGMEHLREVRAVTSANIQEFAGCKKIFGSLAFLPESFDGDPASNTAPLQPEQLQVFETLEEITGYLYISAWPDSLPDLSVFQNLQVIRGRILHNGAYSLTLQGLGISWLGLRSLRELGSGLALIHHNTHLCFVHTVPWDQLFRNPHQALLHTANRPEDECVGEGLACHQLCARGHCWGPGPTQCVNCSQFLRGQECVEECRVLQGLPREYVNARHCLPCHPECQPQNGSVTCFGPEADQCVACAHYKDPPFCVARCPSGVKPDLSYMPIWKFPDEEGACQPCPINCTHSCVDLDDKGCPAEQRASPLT
T3 sequence (P01133 971-1023, further chain): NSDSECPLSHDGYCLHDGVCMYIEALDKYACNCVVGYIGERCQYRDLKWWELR

T1 sequence (P21860 20-643 limits assumed): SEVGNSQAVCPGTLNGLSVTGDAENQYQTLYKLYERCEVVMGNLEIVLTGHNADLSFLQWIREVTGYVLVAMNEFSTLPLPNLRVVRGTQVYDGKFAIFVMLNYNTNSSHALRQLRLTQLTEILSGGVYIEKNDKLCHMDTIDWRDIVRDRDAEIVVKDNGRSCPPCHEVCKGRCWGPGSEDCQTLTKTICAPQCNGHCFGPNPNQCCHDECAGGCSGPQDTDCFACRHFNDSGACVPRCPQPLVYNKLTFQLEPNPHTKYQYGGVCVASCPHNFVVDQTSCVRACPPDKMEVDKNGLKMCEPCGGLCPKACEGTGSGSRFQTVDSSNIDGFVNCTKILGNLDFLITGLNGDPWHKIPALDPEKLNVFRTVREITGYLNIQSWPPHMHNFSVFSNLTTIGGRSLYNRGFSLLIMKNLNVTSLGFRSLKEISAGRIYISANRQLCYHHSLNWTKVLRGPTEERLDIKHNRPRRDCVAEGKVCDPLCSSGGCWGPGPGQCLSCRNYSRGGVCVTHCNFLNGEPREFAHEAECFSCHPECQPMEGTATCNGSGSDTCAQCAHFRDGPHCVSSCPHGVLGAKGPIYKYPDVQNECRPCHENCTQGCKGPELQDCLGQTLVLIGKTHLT
T1 sequence (P01133 971-1023 partner): as the sequence (P01133 971-1023, further chain) above
T2 sequence (P00533 25-645 limits assumed): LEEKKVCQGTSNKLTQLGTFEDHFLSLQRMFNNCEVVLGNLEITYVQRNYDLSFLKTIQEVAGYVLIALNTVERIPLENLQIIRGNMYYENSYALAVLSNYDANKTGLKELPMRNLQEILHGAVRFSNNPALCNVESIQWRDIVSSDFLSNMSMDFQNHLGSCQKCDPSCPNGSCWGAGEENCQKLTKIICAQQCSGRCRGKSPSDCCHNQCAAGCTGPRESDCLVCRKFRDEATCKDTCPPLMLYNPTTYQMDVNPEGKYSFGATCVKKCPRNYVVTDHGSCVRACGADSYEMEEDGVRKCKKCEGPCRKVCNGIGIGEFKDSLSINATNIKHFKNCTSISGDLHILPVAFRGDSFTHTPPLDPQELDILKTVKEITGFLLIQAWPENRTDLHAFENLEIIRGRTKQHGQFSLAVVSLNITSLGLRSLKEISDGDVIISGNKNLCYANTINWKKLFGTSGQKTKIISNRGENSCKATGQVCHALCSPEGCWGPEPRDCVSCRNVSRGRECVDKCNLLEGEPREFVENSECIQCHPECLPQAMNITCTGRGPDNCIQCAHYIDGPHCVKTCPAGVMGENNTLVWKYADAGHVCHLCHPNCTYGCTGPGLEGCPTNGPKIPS
T2 sequence (P01133 971-1023 partner): as the sequence (P01133 971-1023, further chain) above

For CC(C)(O)/C=C/C(=O)[C@](C)(O)[C@H]1[C@H](O)C[C@@]2(C)[C@@H]3CC=C4[C@@H](C[C@H](O)C(=O)C4(C)C)[C@]3(C)C(=O)C[C@]12C [CuD, cucurbitacin D], the IC50 (ErbB3) was 331 nM, the IC50 (EGFR) was 4.33 nM and the IC50 (ErbB2) was 11.1 nM.
